Test results published in patent US11352361B2, “Compounds useful as RET inhibitors” (Cancer Research Technology Limited, priority 2017, dated 2022).
pIC50: −log10 of the molar value.

These compounds were tested against BaF3 cells expressing KIF5B-RET (Homo sapiens, UniProt P07949) (assay: BaF3 cell assay, KIF5B-RET (CellTiter-Glo viability)). Details: 48 hours incubation.
Format: cell-based

BaF3 cells expressing KIF5B-RET, sequence (P07949 29-1114 limits assumed, change not shown): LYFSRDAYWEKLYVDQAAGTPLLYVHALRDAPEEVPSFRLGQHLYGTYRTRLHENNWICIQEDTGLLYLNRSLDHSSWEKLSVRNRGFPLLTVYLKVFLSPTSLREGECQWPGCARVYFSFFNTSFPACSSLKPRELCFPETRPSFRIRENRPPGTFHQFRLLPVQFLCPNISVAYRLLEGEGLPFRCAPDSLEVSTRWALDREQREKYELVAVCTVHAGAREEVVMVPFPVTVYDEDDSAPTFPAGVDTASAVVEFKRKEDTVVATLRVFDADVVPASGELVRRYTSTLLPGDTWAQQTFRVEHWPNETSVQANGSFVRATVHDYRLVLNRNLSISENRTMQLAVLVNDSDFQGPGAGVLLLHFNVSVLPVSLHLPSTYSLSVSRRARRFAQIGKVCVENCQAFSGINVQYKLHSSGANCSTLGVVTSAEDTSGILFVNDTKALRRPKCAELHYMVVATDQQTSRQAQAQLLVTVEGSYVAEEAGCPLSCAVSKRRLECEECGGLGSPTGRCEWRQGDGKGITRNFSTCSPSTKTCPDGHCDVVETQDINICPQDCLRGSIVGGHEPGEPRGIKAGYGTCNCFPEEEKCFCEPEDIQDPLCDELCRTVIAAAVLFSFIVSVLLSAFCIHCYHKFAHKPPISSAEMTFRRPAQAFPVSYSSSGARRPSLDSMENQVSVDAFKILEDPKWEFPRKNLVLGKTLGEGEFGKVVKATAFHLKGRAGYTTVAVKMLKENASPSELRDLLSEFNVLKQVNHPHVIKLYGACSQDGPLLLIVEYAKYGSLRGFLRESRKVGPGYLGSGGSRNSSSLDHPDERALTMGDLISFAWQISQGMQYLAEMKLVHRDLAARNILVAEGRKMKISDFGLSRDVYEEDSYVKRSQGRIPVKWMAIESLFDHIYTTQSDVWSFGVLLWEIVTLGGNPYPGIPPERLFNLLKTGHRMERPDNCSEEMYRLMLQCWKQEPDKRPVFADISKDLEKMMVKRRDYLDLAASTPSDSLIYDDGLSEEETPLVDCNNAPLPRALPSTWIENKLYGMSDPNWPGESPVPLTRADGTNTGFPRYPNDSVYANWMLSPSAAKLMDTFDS

Question: `CC(C)(C)n1nc(-c2ccc3cc(C(=O)Nc4nccs4)[nH]c3c2)c2c(N)ncnc21` [Example 1, 6-(4-Amino-1-tert-butyl-pyrazolo[3,4-d]pyrimidin-3-yl)-N-thiazol-2-yl-1H-indole-2-carboxamide] was tested. Which pIC50 did it give?
Answer: 7.08

Question: With `Cc1csc(NC(=O)c2cc3ccc(-c4nn(C(C)(C)C)c5ncnc(N)c45)cc3[nH]2)n1` [Example 26, 6-(4-Amino-1-tert-butyl-pyrazolo[3,4-d]pyrimidin-3-yl)-N-(4-methylthiazol-2-yl)-1H-indole-2-carboxamide] as the compound, how does the pIC50 read?
Answer: 6.04

Question: How did the pIC50 turn out when `CNC(=O)c1cc2ccc(-c3nn(C4CC4)c4ncnc(N)c34)cc2[nH]1` [Example 50, 6-(4-Amino-1-cyclopropyl-pyrazolo[3,4-d]pyrimidin-3-yl)-N-methyl-1H-indole-2-carboxamide] was run?
Answer: 6.65

Each compound was assayed against RET (Homo sapiens (Human), UniProt P07949) (assay: RET enzyme assay (CisBio HTRF kinEASE)). Details: RET/KDR enzyme and cell assays.
Format: biochemical

RET, sequence (P07949 658-1114): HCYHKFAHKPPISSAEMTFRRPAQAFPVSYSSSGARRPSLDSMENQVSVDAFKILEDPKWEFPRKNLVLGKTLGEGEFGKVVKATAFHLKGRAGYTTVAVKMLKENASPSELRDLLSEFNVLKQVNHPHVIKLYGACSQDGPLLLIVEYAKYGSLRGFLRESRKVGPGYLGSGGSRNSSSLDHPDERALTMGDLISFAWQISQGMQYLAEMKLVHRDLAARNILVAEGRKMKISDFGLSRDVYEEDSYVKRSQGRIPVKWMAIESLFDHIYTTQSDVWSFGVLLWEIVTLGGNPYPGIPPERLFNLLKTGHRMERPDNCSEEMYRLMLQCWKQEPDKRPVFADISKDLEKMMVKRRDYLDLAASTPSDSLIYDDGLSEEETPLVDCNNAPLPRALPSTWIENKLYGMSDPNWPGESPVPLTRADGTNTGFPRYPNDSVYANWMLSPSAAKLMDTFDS

Question: `CNC(=O)c1cc2ccc(-c3nn(CC(=O)N(C)C)c4ncnc(N)c34)cc2[nH]1` [6-[4-amino-1-[2-(dimethylamino)-2-oxo-ethyl]pyrazolo[3,4-d]pyrimidin-3-yl]-N-methyl-1H-indole-2-carboxamide] was tested. Which “desired activity in the assays described in Example 51” value (from here on “desired activity”) did it give?
Answer: did not exhibit the desired activity

Question: With `CNC(=O)c1cc2ccc(-c3nn(CCO)c4ncnc(N)c34)cc2[nH]1` [6-[4-amino-1-(2-hydroxyethyl)pyrazolo[3,4-d]pyrimidin-3-yl]-N-methyl-1H-indole-2-carboxamide] as the compound, how does the “desired activity” value read?
Answer: did not exhibit the desired activity

Question: Which “desired activity” value does the source give for `CCNC(=O)c1cc2ccc(-c3nn([C@H]4CC[C@@H](O)C4)c4ncnc(NC)c34)cc2[nH]1` [N-ethyl-6-[1-[(1 S,3R)-3-hydroxycyclopentyl]-4-(methylamino)pyrazolo[3,4-d]pyrimidin-3-yl]-1H-indole-2-carboxamide] here?
Answer: did not exhibit the desired activity

Question: With `CNC(=O)c1cc2ccc(-c3nn(CCC(=O)N(C)C)c4ncnc(N)c34)cc2[nH]1` [6-[4-amino-1-[3-(dimethylamino)-3-oxo-propyl]pyrazolo[3,4-d]pyrimidin-3-yl]-N-methyl-1H-indole-2-carboxamide] as the compound, how does the “desired activity” value read?
Answer: did not exhibit the desired activity

Question: With `CC(C)(C)n1nc(-c2ccc3cc(C(=O)Nc4nnc(C(F)(F)F)s4)[nH]c3c2)c2c(N)ncnc21` [6-(4-amino-1-tert-butyl-pyrazolo[3,4-d]pyrimidin-3-yl)-N-[5-(trifluoromethyl)-1,3,4-thiadiazol-2-yl]-1H-indole-2-carboxamide] as the compound, how does the “desired activity” value read?
Answer: did not exhibit the desired activity

Question: For `CC(C)(C)n1nc(-c2ccc3cc(C(=O)O)[nH]c3c2)c2c(N)ncnc21` [6-(4-amino-1-tert-butyl-pyrazolo[3,4-d]pyrimidin-3-yl)-1H-indole-2-carboxylic acid], which “desired activity” value is on record?
Answer: did not exhibit the desired activity

Question: How did the “desired activity” value turn out when `CNC(=O)c1cc2ccc(-c3n[nH]c4ncnc(N)c34)cc2[nH]1` [6-(4-amino-1H-pyrazolo[3,4-d]pyrimidin-3-yl)-N-methyl-1H-indole-2-carboxamide] was run?
Answer: did not exhibit the desired activity

The compounds below were run against BaF3 cells expressing KDR (Homo sapiens, UniProt P35968, cells depend on it, form not given) (assay: not given). Details: read-out: KDR Cell IC50; 48 hours incubation.
BaF3 cells expressing KDR, sequence (P35968 20-1356 limits assumed, change not shown): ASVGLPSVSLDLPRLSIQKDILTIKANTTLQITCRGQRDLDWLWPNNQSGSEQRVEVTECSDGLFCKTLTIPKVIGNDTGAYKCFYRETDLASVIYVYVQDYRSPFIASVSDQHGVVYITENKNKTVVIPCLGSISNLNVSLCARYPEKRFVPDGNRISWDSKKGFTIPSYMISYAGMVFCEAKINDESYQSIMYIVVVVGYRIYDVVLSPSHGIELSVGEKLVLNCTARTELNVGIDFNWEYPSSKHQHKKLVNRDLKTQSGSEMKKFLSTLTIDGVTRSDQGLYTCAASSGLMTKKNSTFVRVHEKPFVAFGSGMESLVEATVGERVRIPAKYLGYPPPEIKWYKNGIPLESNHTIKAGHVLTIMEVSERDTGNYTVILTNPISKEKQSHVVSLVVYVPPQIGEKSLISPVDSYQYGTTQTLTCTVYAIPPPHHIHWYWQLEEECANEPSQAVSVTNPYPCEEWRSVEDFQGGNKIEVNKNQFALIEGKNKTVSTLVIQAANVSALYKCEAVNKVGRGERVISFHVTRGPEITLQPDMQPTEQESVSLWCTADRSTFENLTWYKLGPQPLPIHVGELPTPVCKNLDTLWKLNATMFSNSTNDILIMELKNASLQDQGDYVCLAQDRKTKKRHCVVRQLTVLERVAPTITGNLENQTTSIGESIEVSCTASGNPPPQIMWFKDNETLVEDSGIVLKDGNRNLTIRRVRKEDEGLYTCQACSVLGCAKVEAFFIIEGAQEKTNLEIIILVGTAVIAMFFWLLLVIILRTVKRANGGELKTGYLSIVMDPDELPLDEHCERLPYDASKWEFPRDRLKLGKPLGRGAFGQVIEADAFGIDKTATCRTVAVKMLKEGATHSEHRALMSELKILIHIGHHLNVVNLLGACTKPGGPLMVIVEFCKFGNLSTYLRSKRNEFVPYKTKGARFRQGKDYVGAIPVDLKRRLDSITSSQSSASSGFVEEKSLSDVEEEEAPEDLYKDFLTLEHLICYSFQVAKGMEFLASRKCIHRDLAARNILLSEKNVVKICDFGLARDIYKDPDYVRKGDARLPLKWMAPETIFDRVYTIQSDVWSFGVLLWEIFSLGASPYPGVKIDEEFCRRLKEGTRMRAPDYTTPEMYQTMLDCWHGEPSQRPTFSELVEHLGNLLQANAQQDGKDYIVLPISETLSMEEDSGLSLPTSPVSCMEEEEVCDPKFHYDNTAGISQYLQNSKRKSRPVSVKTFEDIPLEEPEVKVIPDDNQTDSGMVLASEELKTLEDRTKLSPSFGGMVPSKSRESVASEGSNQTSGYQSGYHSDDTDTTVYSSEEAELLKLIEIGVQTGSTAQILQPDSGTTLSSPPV

Question: How did the pIC50 turn out when `CC(C)(C)n1nc(-c2ccc3cc(C(=O)NCC(F)(F)F)[nH]c3c2)c2c(N)ncnc21` [Example 11, 6-(4-Amino-1-tert-butyl-pyrazolo[3,4-d]pyrimidin-3-yl)-N-(2,2,2-trifluoroethyl)-1H-indole-2-carboxamide] was run?
Answer: 5.37

Question: `CC(C)n1nc(-c2ccc3cc(C(=O)Nc4nccs4)[nH]c3c2)c2c(N)ncnc21` [Example 37, 6-(4-Amino-1-isopropyl-pyrazolo[3,4-d]pyrimidin-3-yl)-N-thiazol-2-yl-1H-indole-2-carboxamide] was tested. Which pIC50 did it give?
Answer: 6.15

Each compound was assayed against KDR (Homo sapiens (Human), UniProt P35968) (assay: KDR enzyme assay (CisBio HTRF kinEASE)). Details: ATP at Km, 15 mins pre-incubation.
Format: biochemical

KDR, sequence (P35968 790-1356): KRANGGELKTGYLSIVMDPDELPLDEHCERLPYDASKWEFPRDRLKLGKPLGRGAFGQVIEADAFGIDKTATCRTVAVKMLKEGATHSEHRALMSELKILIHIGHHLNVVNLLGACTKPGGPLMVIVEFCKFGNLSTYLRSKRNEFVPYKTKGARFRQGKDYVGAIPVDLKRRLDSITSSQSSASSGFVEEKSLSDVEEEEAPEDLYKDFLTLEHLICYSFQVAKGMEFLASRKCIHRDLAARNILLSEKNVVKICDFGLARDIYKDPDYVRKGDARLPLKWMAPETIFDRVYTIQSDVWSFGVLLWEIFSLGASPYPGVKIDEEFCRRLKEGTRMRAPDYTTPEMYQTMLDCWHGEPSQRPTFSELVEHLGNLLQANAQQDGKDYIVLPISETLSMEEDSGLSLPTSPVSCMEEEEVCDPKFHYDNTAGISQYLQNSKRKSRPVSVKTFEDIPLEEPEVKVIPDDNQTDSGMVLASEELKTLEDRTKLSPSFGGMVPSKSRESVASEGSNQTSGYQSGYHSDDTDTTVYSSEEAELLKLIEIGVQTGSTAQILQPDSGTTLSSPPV

Question: `CC(C)(C)n1nc(-c2ccc3cc(C(=O)NCC(F)(F)F)[nH]c3c2)c2c(N)ncnc21` [Example 11, 6-(4-Amino-1-tert-butyl-pyrazolo[3,4-d]pyrimidin-3-yl)-N-(2,2,2-trifluoroethyl)-1H-indole-2-carboxamide] was tested. Which pIC50 did it give?
Answer: 3.82
